Assay results taken from patent publication US10899758B2, “Inhibitors of the menin-MLL interaction” (Vitae Pharmaceuticals, LLC, priority 2016, dated 2021).

Columns and labels:
[1] = molecular target: T1, menin/MLL binding (biotinylated wild-type or mutated menin and MLL-AF9 fusion protein) (Homo sapiens, UniProt O00255); assay: Assay 1 (Binding Assay): AlphaLISA menin/MLL binding; details: 5 nM biotinylated menin, MLL-AF9-FLAG lysate
T1 construct: biotinylated (1) wild-type menin or (2) mutated menin (described in Nature (2012) Vol. 482, pp. 542-548); fused on or other part: Biotin attached chemically (Sulfo-NHS-Biotin); no fused second protein is printed for menin
T1 sequence (O00255 1-459 limits assumed): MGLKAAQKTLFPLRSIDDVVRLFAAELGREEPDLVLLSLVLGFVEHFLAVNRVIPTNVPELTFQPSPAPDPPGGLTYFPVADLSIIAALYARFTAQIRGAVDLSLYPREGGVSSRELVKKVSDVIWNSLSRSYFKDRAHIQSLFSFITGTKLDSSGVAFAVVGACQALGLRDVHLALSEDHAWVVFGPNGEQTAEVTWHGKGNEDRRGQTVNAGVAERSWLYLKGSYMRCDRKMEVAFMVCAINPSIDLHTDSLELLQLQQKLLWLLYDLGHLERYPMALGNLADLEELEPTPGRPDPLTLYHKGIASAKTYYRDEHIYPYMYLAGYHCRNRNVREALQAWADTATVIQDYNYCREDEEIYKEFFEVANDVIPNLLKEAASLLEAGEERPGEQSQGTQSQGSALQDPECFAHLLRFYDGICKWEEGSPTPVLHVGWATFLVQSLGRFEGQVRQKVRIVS
Procedure, shortened: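 Biotinylated E. coli-expressed menin (wild-type or mutant), 5 nM, incubated 30 min RT with compound and HEK293 lysate of MLL1-1,396–AF9-FLAG in pH 7.4 Tris buffer, 5% DMSO, 1 mM DTT. Anti-FLAG acceptor and streptavidin donor beads added, 60 min RT, AlphaLISA signal read. IC50 from four-parameter fit of % inhibition.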

[2] = system: human acute monocytic leukemia cell line MV-4-11; assay: Assay 2 (Cell Proliferation Assay), ATP quantitation (CellTiter-Glo); type: cell-based; details: Homo sapiens, MV4-11, 72 h, MV-4-11 cells, read-out: Assay 2 (EC50, inhibition of cell proliferation)
Procedure, shortened: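 Cells (1.67×10^4/well, 10% FBS medium) incubated ±compound 72 h at 37 °C, 5% CO2; HL-60 served as toxicity control. ATP read by CellTiter-Glo luminescence; % inhibition scaled between DMSO and a potent menin inhibitor at ≥100×LD50.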

| Compound | IC50 [1] [nM] | EC50 [2] [nM] |
| --- | --- | --- |
| CC(C)N(C)C(=O)c1cc(F)ccc1-n1cc(C2CCCN(Cc3ccc4c(c3)NC(=O)C4(C)C#N)C2)c2ccncc21 (centres unmarked) [Example 88, 2-(3-(1-((3-cyano-3-methyl-2-oxoindolin-6-yl)methyl)piperidin-3-yl)-1H-pyrrolo[2,3-c]pyridin-1-yl)-5-fluoro-N-isopropyl-N-methylbenzamide] | < 100 | < 100 |
| CC(C)N(C)C(=O)c1cc(F)ccc1-n1cc(C2CCN(CCN3CCC(NS(C)(=O)=O)CC3)CC2)c2ccncc21 [Example 93, 5-fluoro-N-isopropyl-N-methyl-2-(3-(1-(2-(4-(methylsulfonamido)piperidin-1-yl)ethyl)piperidin-4-yl)-1H-pyrrolo[2,3-c]pyridin-1-yl)benzamide] | < 100 | 100 to 1000 |
| CC(C)N(C)C(=O)c1cc(F)ccc1-n1cc([C@H]2CC[C@H](N3CCC[C@H]3CO)CC2)c2ccncc21 [Example 96, 5-fluoro-2-(3-(trans-4-((S)-2-(hydroxymethyl)pyrrolidin-1-yl)cyclohexyl)-1H-pyrrolo[2,3-c]pyridin-1-yl)-N-isopropyl-N-methylbenzamide] | < 100 | 100 to 1000 |
| CC(C)N(C)C(=O)c1cc(F)ccc1-n1cc([C@H]2CC[C@H](N3CCC[C@@H]3CO)CC2)c2ccncc21 [Example 100, 5-fluoro-2-(3-(trans-4-((R)-2-(hydroxymethyl)pyrrolidin-1-yl)cyclohexyl)-1H-pyrrolo[2,3-c]pyridin-1-yl)-N-isopropyl-N-methylbenzamide] | < 100 | 100 to 1000 |
| CC(C)N(C)C(=O)c1cc(F)ccc1-n1cc([C@H]2CC[C@H](N3CC[C@H](CO)C3)CC2)c2ccncc21 [Example 104, 5-fluoro-2-(3-(trans-4-((S)-3-(hydroxymethyl)pyrrolidin-1-yl)cyclohexyl)-1H-pyrrolo[2,3-c]pyridin-1-yl)-N-isopropyl-N-methylbenzamide] | < 100 | 100 to 1000 |
| CC(C)N(C)C(=O)c1cc(F)ccc1-n1cc([C@H]2CC[C@H](N3CCCCC3)CC2)c2ccncc21 [Example 106, 5-fluoro-N-isopropyl-N-methyl-2-(3-(trans-4-(piperidin-1-yl)cyclohexyl)-1H-pyrrolo[2,3-c]pyridin-1-yl)benzamide] | < 100 | 100 to 1000 |
| CC(C)N(C)C(=O)c1cc(F)ccc1-n1cc([C@H]2CC[C@@H](N3CCC(O)CC3)CC2)c2ccncc21 [Example 109, 5-fluoro-2-(3-(cis-4-(4-hydroxypiperidin-1-yl)cyclohexyl)-1H-pyrrolo[2,3-c]pyridin-1-yl)-N-isopropyl-N-methylbenzamide] | < 100 | 100 to 1000 |
| CC(C)N(C)C(=O)c1cc(F)ccc1-n1cc([C@H]2CC[C@H](N3CCC(F)(F)CC3)CC2)c2ccncc21 [Example 110, 2-(3-(trans-4-(4,4-difluoropiperidin-1-yl)cyclohexyl)-1H-pyrrolo[2,3-c]pyridin-1-yl)-5-fluoro-N-isopropyl-N-methylbenzamide] | < 100 | 100 to 1000 |
| CC(C)N(C)C(=O)c1cc(F)ccc1-n1cc([C@H]2CC[C@H](N3CCCC(O)C3)CC2)c2ccncc21 (stereo partly drawn) [Example 112, 5-fluoro-2-(3-(trans-4-(3-hydroxypiperidin-1-yl)cyclohexyl)-1H-pyrrolo[2,3-c]pyridin-1-yl)-N-isopropyl-N-methylbenzamide] | < 100 | ≥ 1000 |
| CC(C)N(C)C(=O)c1cc(F)ccc1-n1cc([C@H]2CC[C@@H](N3CCCC(O)C3)CC2)c2ccncc21 (stereo partly drawn) [Example 113, 5-fluoro-2-(3-(cis-4-(3-hydroxypiperidin-1-yl)cyclohexyl)-1H-pyrrolo[2,3-c]pyridin-1-yl)-N-isopropyl-N-methylbenzamide] | < 100 | 100 to 1000 |
| CC(C)N(C)C(=O)c1cc(F)ccc1-n1cc([C@H]2CC[C@H](N3CCOCC3)CC2)c2ccncc21 [Example 117, 5-fluoro-N-isopropyl-N-methyl-2-(3-(trans-4-morpholinocyclohexyl)-1H-pyrrolo[2,3-c]pyridin-1-yl)benzamide] | < 100 | ≥ 1000 |
| Cc1nnc(C2CC2)n1-c1cc(F)ccc1-n1cc(C2CCCN(Cc3ccc4[nH]c(=O)[nH]c4c3)C2)c2ccncc21 (centres unmarked) [Example 121, 5-((3-(1-(2-(3-cyclopropyl-5-methyl-4H-1,2,4-triazol-4-yl)-4-fluorophenyl)-1H-pyrrolo[2,3-c]pyridin-3-yl)piperidin-1-yl)methyl)-1H-benzo[d]imidazol-2(3H)-one] | < 100 | < 100 |
| CC(C)N(C)C(=O)c1cc(F)ccc1-n1cc(C2CCN(Cc3ccc4[nH]c(=O)[nH]c4c3)C2)c2ccncc21 (centres unmarked) [Example 122, 5-fluoro-N-isopropyl-N-methyl-2-(3-(1-((2-oxo-2,3-dihydro-1H-benzo[d]imidazol-5-yl)methyl)pyrrolidin-3-yl)-1H-pyrrolo[2,3-c]pyridin-1-yl)benzamide] | < 100 | < 100 |
| CC(C)N(C)C(=O)c1cc(F)ccc1-n1cc(C2CCN(Cc3ccc4c(c3)[nH]c(=O)n4CCO)C2)c2ccncc21 (centres unmarked) [Example 123, 5-fluoro-2-(3-(1-((1-(2-hydroxyethyl)-2-oxo-2,3-dihydro-1H-benzo[d]imidazol-5-yl)methyl)pyrrolidin-3-yl)-1H-pyrrolo[2,3-c]pyridin-1-yl)-N-isopropyl-N-methylbenzamide] | < 100 | < 100 |
| CC(C)N(C)C(=O)c1cc(F)ccc1-n1cc(C2CCN(C[C@H]3CC[C@H](NS(C)(=O)=O)CC3)C2)c2ccncc21 (stereo partly drawn) [Example 124, N-methyl-5-fluoro-N-isopropyl-2-(3-(1-((trans-4-(methylsulfonamido)cyclohexyl)methyl)pyrrolidin-3-yl)-1H-pyrrolo[2,3-c]pyridin-1-yl)benzamide] | < 100 | 100 to 1000 |
| CCN(C(=O)c1cc(F)ccc1-n1cc(C2CCN(C[C@H]3CC[C@H](NS(C)(=O)=O)CC3)C2)c2ccncc21)C(C)C (stereo partly drawn) [Example 125, N-ethyl-5-fluoro-N-isopropyl-2-(3-(1-((trans-4-(methylsulfonamido)cyclohexyl)methyl)pyrrolidin-3-yl)-1H-pyrrolo[2,3-c]pyridin-1-yl)benzamide] | < 100 | < 100 |
| CC(C)N(C(=O)c1cc(F)ccc1-n1cc(C2CCN(Cc3ccc4c(c3)[nH]c(=O)n4CCO)C2)c2ccncc21)C(C)C (centres unmarked) [Example 126, 5-fluoro-2-(3-(1-((1-(2-hydroxyethyl)-2-oxo-2,3-dihydro-1H-benzo[d]imidazol-5-yl)methyl)pyrrolidin-3-yl)-1H-pyrrolo[2,3-c]pyridin-1-yl)-N,N-diisopropylbenzamide] | < 100 | < 100 |
| CC(C)N(C(=O)c1cc(F)ccc1-n1cc(C2CCN(C[C@H]3CC[C@H](NS(C)(=O)=O)CC3)C2)c2ccncc21)C(C)C (stereo partly drawn) [Example 127, 5-fluoro-N,N-diisopropyl-2-(3-(1-((trans-4-(methylsulfonamido)cyclohexyl)methyl)pyrrolidin-3-yl)-1H-pyrrolo[2,3-c]pyridin-1-yl)benzamide] | < 100 | < 100 |
| CC(C)N(C(=O)c1cc(F)ccc1-n1cc(C2CN(CC[C@H]3CC[C@H](NC(=O)OC(C)(C)C)CC3)C2)c2ccncc21)C(C)C [Example 136, tert-butyl ((1r,4r)-4-(2-(3-(1-(2-(diisopropylcarbamoyl)-4-fluorophenyl)-1H-pyrrolo[2,3-c]pyridin-3-yl)azetidin-1-yl)ethyl)cyclohexyl)carbamate] | < 100 | < 100 |
| CC(C)N(C(=O)c1cc(F)ccc1-n1cc(C2CN(CC[C@H]3CC[C@H](NS(C)(=O)=O)CC3)C2)c2ccncc21)C(C)C [Example 137, 5-fluoro-N,N-diisopropyl-2-(3-(1-(2-((1r,4r)-4-(methylsulfonamido)cyclohexyl)ethyl)azetidin-3-yl)-1H-pyrrolo[2,3-c]pyridin-1-yl)benzamide] | < 100 | < 100 |
| CC(C)N(C(=O)c1cc(F)ccc1-n1cc(C2CN(C[C@H]3CC[C@H](NS(C)(=O)=O)CC3)C2)c2ccncc21)C(C)C [Example 138, 5-fluoro-N,N-diisopropyl-2-(3-(1-(((1r,4r)-4-(methylsulfonamido)cyclohexyl)methyl)azetidin-3-yl)-1H-pyrrolo[2,3-c]pyridin-1-yl)benzamide] | < 100 | 100 to 1000 |
| CC(C)N(C(=O)c1cc(F)ccc1-n1cc(C2CCN(Cc3ccc4oc(=O)[nH]c4c3)C2)c2ccncc21)C(C)C (centres unmarked) [Example 140, 5-fluoro-N,N-diisopropyl-2-(3-(1-((2-oxo-2,3-dihydrobenzo[d]oxazol-5-yl)methyl)pyrrolidin-3-yl)-1H-pyrrolo[2,3-c]pyridin-1-yl)benzamide] | < 100 | < 100 |
